7 molecules from PubChem BioAssay (NCI) can be followed below.

Test systems include UO-31 renal; KM12 colon; SF-295 CNS; SK-MEL-5 melanoma; HCT-15 colon; OVCAR-8 ovarian; EKVX NSCLC; RXF 393 renal; OVCAR-5 ovarian; 786-0 renal; HOP-92 NSCLC; IGROV1 ovarian; BT-549 breast; SW-620 colon; HL-60(TB) leukemia; HCT-116 colon; OVCAR-3 ovarian; K-562 leukemia; A549 NSCLC; SK-OV-3 ovarian.
Common to all, as to assay: NCI-60 cell line screen, 48 h

Structures are written as SMILES.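 Where inhibition never reached the appropriate level, the endpoint shown equals the highest concentration tested. Otherwise, values were interpolated linearly from a five-concentration, 48-hour dose response in 96-well plates. At the TGI there is no net growth.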 Some results are limits rather than exact numbers.

Consider `O=C(Nc1nc(C23CC4CC(CC(C4)C2)C3)cs1)c1c(O)c2ccccc2[nH]c1=O`, for which the TGI with UO-31 renal, with KM12 colon, with SF-295 CNS, in the test with SK-MEL-5 melanoma, in the test on HCT-15 colon and in the test with OVCAR-8 ovarian was over 100 µM in each case. For the same molecule, the TGI in the test with EKVX NSCLC, in the test on RXF 393 renal, in the test with OVCAR-5 ovarian, in the test with 786-0 renal, in the test on HOP-92 NSCLC and in the test on IGROV1 ovarian was over 100 µM throughout. The TGI in the test with BT-549 breast, in the test with SW-620 colon, in the test with HL-60(TB) leukemia, in the test with HCT-116 colon, with OVCAR-3 ovarian and in the test on K-562 leukemia was over 100 µM throughout. This molecule registered a TGI with A549 NSCLC of over 100 µM.
With `O=C(NCCCCN(CCCNC(=O)C(F)(F)F)Cc1ccc2ccccc2c1)C(F)(F)F`, the TGI in the test on UO-31 renal was 20.5 µM; in the test with KM12 colon, 32.1 µM; with SF-295 CNS, 32.7 µM; in the test with SK-MEL-5 melanoma, 48.9 µM; in the test on HCT-15 colon, 31.1 µM; in the test with OVCAR-8 ovarian it was 36.1 µM. In addition, the TGI is 35.8 µM with EKVX NSCLC; 52.9 µM in the test with RXF 393 renal; 32.6 µM with OVCAR-5 ovarian; 30.6 µM in the test on 786-0 renal; 67.1 µM with HOP-92 NSCLC; 55.6 µM with SK-OV-3 ovarian. Besides, the TGI with IGROV1 ovarian is 32.9 µM; with BT-549 breast it was 36.5 µM; in the test on SW-620 colon, 32.4 µM; in the test on HL-60(TB) leukemia it was over 100 µM; with HCT-116 colon, 33.9 µM; in the test on K-562 leukemia it was 37 µM. The molecule further had a TGI with A549 NSCLC of over 100 µM.
Take `CC1=NNC(=O)C1C1CC(c2c[nH]c3ccccc23)=NNC1=S` (configuration not stated): the TGI with UO-31 renal, in the test with KM12 colon, in the test on SF-295 CNS, with SK-MEL-5 melanoma, with HCT-15 colon and in the test on OVCAR-8 ovarian was over 100 µM each time. For the same molecule, the TGI with EKVX NSCLC, in the test on RXF 393 renal, in the test on OVCAR-5 ovarian, in the test on 786-0 renal, with HOP-92 NSCLC and in the test with SK-OV-3 ovarian was over 100 µM throughout. Besides, the TGI in the test with BT-549 breast, in the test on SW-620 colon, with HL-60(TB) leukemia, in the test with HCT-116 colon, in the test with OVCAR-3 ovarian and in the test with K-562 leukemia was over 100 µM throughout. The same molecule gave a TGI in the test on A549 NSCLC of over 100 µM.
Take `O=S(=O)(N/N=C1\CC2CCC1C2)c1ccccc1` (configuration not stated): the TGI with UO-31 renal, with KM12 colon, in the test on SF-295 CNS, with SK-MEL-5 melanoma, with HCT-15 colon and in the test on OVCAR-8 ovarian was over 100 µM throughout. The TGI in the test with EKVX NSCLC, in the test on OVCAR-5 ovarian, in the test with 786-0 renal, with HOP-92 NSCLC, with SK-OV-3 ovarian and with IGROV1 ovarian was over 100 µM throughout. For the same molecule, the TGI in the test with BT-549 breast, in the test with SW-620 colon, with HL-60(TB) leukemia, with HCT-116 colon, with OVCAR-3 ovarian and in the test on K-562 leukemia was over 100 µM throughout. Also, in the test on A549 NSCLC, the TGI was over 100 µM.
As to `CN(C)Cc1cc(N=Nc2cccc(Cl)c2)ccc1O`, the TGI worked out at 23.3 µM in the test with UO-31 renal; 22 µM with KM12 colon; 27.8 µM in the test with SF-295 CNS; 14.2 µM in the test on SK-MEL-5 melanoma; 20.5 µM with HCT-15 colon; 28.5 µM with OVCAR-8 ovarian. In addition, the TGI was determined as 20.8 µM in the test with RXF 393 renal; 30.1 µM in the test on OVCAR-5 ovarian; 27.4 µM in the test on 786-0 renal; 41 µM in the test with HOP-92 NSCLC; 37.9 µM in the test on SK-OV-3 ovarian; 27.1 µM with IGROV1 ovarian. For the same molecule, the TGI with BT-549 breast amounted to 34 µM; with SW-620 colon, 23.7 µM; with HL-60(TB) leukemia, 37.4 µM; with HCT-116 colon, 52 µM; in the test with OVCAR-3 ovarian, 28.9 µM; in the test with K-562 leukemia it was 12.8 µM. The molecule also came in with a TGI with A549 NSCLC of 32.2 µM.
As to `O=S(=O)(O)CCCC1S(=O)(=O)OCCOS1(=O)=O`, the TGI in the test with UO-31 renal, with KM12 colon, in the test with SF-295 CNS, in the test with SK-MEL-5 melanoma, in the test on HCT-15 colon and in the test on OVCAR-8 ovarian was over 100 µM each time. Besides, the TGI in the test on EKVX NSCLC, in the test with RXF 393 renal, in the test on OVCAR-5 ovarian, with 786-0 renal, with HOP-92 NSCLC and with SK-OV-3 ovarian was over 100 µM throughout. The TGI in the test with IGROV1 ovarian, in the test on BT-549 breast, in the test with SW-620 colon, with HL-60(TB) leukemia, in the test with HCT-116 colon and with OVCAR-3 ovarian was over 100 µM in each case.
Regarding `Cc1n[nH]c(=O)n1C1CCCC1`, the TGI in the test with UO-31 renal, in the test with KM12 colon, in the test with SF-295 CNS, in the test with SK-MEL-5 melanoma, in the test with HCT-15 colon and in the test on OVCAR-8 ovarian was over 100 µM in each case. Further, the TGI with EKVX NSCLC, in the test on RXF 393 renal, in the test with OVCAR-5 ovarian, in the test with 786-0 renal, with HOP-92 NSCLC and in the test with IGROV1 ovarian was over 100 µM in each case. For the same molecule, the TGI with BT-549 breast, with SW-620 colon, in the test with HL-60(TB) leukemia, in the test with HCT-116 colon, in the test with OVCAR-3 ovarian and in the test on K-562 leukemia was over 100 µM throughout. Besides, in the test on A549 NSCLC, the TGI is over 100 µM.
